In ChEMBL document CHEMBL1201862, “PubChem BioAssay data set” (2004):
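Growth conditions: 96-well plates. Treatment: test compound, 48 hours, 5 concentrations. Analysis: linear interpolation between bracketing concentrations; unreached endpoints set to highest concentration. Abbreviation: GI50, concentration required for 50% inhibition of growth.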 Active and inactive are the calls of the source. Rule as the data show it: active = GI50 up to about 1.1 µM and inactive = higher.

How the values were obtained:
Test in all cases: NCI anticancer screen, dose series, 48 h
A498 = tested on: A498
A549 = tested on: A549
HCC 2998 = tested on: HCC 2998
HCT-116 = tested on: HCT-116
LOX IMVI = tested on: LOX IMVI
MOLT-4 = tested on: MOLT-4
NCI-H23 = tested on: NCI-H23
NCI-H522 = tested on: NCI-H522
OVCAR-8 = tested on: OVCAR-8
SF-295 = tested on: SF-295
SK-MEL-28 = tested on: SK-MEL-28
SK-OV-3 = tested on: SK-OV-3
SN12C = tested on: SN12C
SNB-75 = tested on: SNB-75
U-251 = tested on: U-251
UACC-62 = tested on: UACC-62
SR = tested on: SR

Measured: GI50

OC12c3ccccc3C3CCC4(OCCO4)C3C1c1ccccc12 (stereo not given)
inactive: A498 52.1 µM | A549 > 100 µM | HCC 2998 > 100 µM | HCT-116 > 100 µM | LOX IMVI > 100 µM | MOLT-4 48.6 µM | NCI-H23 > 100 µM | NCI-H522 65 µM | OVCAR-8 > 100 µM | SF-295 > 100 µM | SK-MEL-28 > 100 µM | SK-OV-3 > 100 µM | SN12C > 100 µM | SNB-75 39.6 µM | U-251 > 100 µM | UACC-62 > 100 µM

CC(C)(Oc1ccc(C(=O)c2ccc(Cl)cc2)cc1Cl)C(=O)Nc1c(Cl)cccc1Cl
inactive: A498 > 100 µM | A549 > 100 µM | HCT-116 > 100 µM | LOX IMVI > 100 µM | MOLT-4 67.9 µM | NCI-H23 > 100 µM | NCI-H522 12.3 µM | OVCAR-8 > 100 µM | SF-295 > 100 µM | SK-MEL-28 > 100 µM | SK-OV-3 > 100 µM | SR 9.75 µM | U-251 > 100 µM | UACC-62 > 100 µM

O=c1sc(-c2nc3ccccc3[nH]2)c(/N=C/c2ccccc2)n1-c1ccccc1
inactive: A498 > 100 µM | A549 57.4 µM | HCC 2998 > 100 µM | LOX IMVI 40.3 µM | MOLT-4 > 100 µM | NCI-H23 > 100 µM | NCI-H522 90.2 µM | OVCAR-8 35.6 µM | SF-295 40.9 µM | SK-MEL-28 > 100 µM | SK-OV-3 42.6 µM | SN12C 73.3 µM | SNB-75 21.6 µM | U-251 68.7 µM | UACC-62 52.5 µM

Cc1nc(-n2nc(-c3ccccc3)cc2-c2ccccc2)sc1C(=O)/C=C/c1cccc([N+](=O)[O-])c1
inactive: A498 20.2 µM | A549 17.5 µM | HCC 2998 15.5 µM | LOX IMVI 11.2 µM | MOLT-4 6.04 µM | NCI-H23 17.2 µM | NCI-H522 13.8 µM | OVCAR-8 28.4 µM | SF-295 20.1 µM | SK-MEL-28 17.1 µM | SK-OV-3 46.3 µM | SN12C 19.8 µM | SNB-75 5.73 µM | U-251 15.2 µM | UACC-62 13.8 µM

CN(C(=O)c1cccs1)C(=S)N1CCN(c2ccccn2)CC1
inactive: A549 > 100 µM | HCT-116 > 100 µM | LOX IMVI > 100 µM | MOLT-4 > 100 µM | NCI-H23 > 100 µM | NCI-H522 > 100 µM | OVCAR-8 > 100 µM | SF-295 > 100 µM | SK-MEL-28 > 100 µM | SK-OV-3 > 100 µM | SN12C > 100 µM | SNB-75 > 100 µM | U-251 > 100 µM | UACC-62 > 100 µM

O=C1Cc2nc(CO)c(CO)c(CO)c2CO1
inactive: A498 > 100 µM | A549 > 100 µM | HCC 2998 > 100 µM | HCT-116 > 100 µM | LOX IMVI > 100 µM | NCI-H23 > 100 µM | NCI-H522 > 100 µM | OVCAR-8 > 100 µM | SF-295 > 100 µM | SK-MEL-28 > 100 µM | SK-OV-3 > 100 µM | SN12C > 100 µM | SNB-75 > 100 µM | U-251 > 100 µM | UACC-62 > 100 µM

COc1ccc(CNc2cnc3ccc(N)cc3n2)cc1OC
inactive: A549 > 100 µM | HCC 2998 > 100 µM | HCT-116 53.8 µM | LOX IMVI > 100 µM | MOLT-4 > 100 µM | NCI-H23 > 100 µM | NCI-H522 > 100 µM | OVCAR-8 > 100 µM | SF-295 > 100 µM | SK-MEL-28 67 µM | SN12C > 100 µM | SNB-75 66.7 µM | SR > 100 µM

C=CCC(N(C)C(=O)[C@H](Cc1ccccc1)NC(=O)OCc1ccccc1)P(=O)(Oc1ccccc1)Oc1ccccc1 (stereo not given in full)
inactive: A549 5.81 µM | HCC 2998 > 100 µM | HCT-116 5.9 µM | LOX IMVI > 100 µM | MOLT-4 2.77 µM | NCI-H23 > 100 µM | NCI-H522 > 100 µM | OVCAR-8 > 100 µM | SF-295 > 100 µM | SK-MEL-28 > 100 µM | SK-OV-3 > 100 µM | SN12C > 100 µM | SNB-75 80.5 µM | SR 6.37 µM | U-251 > 100 µM | UACC-62 > 100 µM

CN(C)c1ccc(/C=C/c2ccc(/C=C/c3ccc(N(C)C)cc3)cc2)cc1
inactive: A498 > 100 µM | A549 95.9 µM | HCC 2998 > 100 µM | HCT-116 83.9 µM | LOX IMVI > 100 µM | MOLT-4 > 100 µM | NCI-H23 94.6 µM | NCI-H522 > 100 µM | OVCAR-8 > 100 µM | SF-295 89.1 µM | SK-MEL-28 > 100 µM | SK-OV-3 > 100 µM | SN12C > 100 µM | SNB-75 > 100 µM | U-251 > 100 µM | UACC-62 87.3 µM

CC1C[C@@]2(c3ccccc3)C(=O)CCC[C@H]2N1 (stereo not given in full)
inactive: A498 > 100 µM | A549 > 100 µM | HCT-116 > 100 µM | MOLT-4 > 100 µM | NCI-H23 > 100 µM | NCI-H522 > 100 µM | OVCAR-8 > 100 µM | SF-295 > 100 µM | SK-MEL-28 > 100 µM | SK-OV-3 > 100 µM | SN12C > 100 µM | SNB-75 > 100 µM | SR > 100 µM | U-251 > 100 µM | UACC-62 > 100 µM

C/C(=N\NC(=O)CC(=O)Nc1ccc(C)cc1)c1cc2ccccc2oc1=O
inactive: A549 > 100 µM | HCT-116 > 100 µM | LOX IMVI > 100 µM | MOLT-4 > 100 µM | NCI-H23 > 100 µM | NCI-H522 > 100 µM | OVCAR-8 > 100 µM | SF-295 > 100 µM | SK-MEL-28 > 100 µM | SK-OV-3 > 100 µM | SN12C > 100 µM | SNB-75 20.2 µM | U-251 > 100 µM | UACC-62 > 100 µM

CCOC(=O)C1COc2cc(-c3cc(=O)c4ccccc4o3)ccc2O1 (stereo not given)
inactive: A549 > 100 µM | HCC 2998 > 100 µM | HCT-116 > 100 µM | LOX IMVI 52.7 µM | MOLT-4 > 100 µM | NCI-H23 > 100 µM | NCI-H522 19.2 µM | OVCAR-8 24.7 µM | SF-295 > 100 µM | SK-MEL-28 > 100 µM | SK-OV-3 > 100 µM | SN12C 29.5 µM | SNB-75 47.9 µM | SR > 100 µM | U-251 > 100 µM | UACC-62 36.8 µM

Cc1cc(N(CCC#N)CCC#N)ccc1CC1N=C(c2ccccc2)OC1=O (stereo not given)
inactive: A498 > 100 µM | A549 > 100 µM | HCC 2998 > 100 µM | HCT-116 > 100 µM | LOX IMVI > 100 µM | MOLT-4 > 100 µM | NCI-H23 > 100 µM | NCI-H522 > 100 µM | OVCAR-8 > 100 µM | SF-295 > 100 µM | SK-MEL-28 > 100 µM | SK-OV-3 > 100 µM | SN12C > 100 µM | SNB-75 > 100 µM | U-251 > 100 µM | UACC-62 > 100 µM
